Molecular target: T1, human EGFR (d746-750/T790M/C797S) (Homo sapiens, UniProt P00533, C797S/DEL746-750/T790M)
T1 construct: human EGFR (d746-750/T790M/C797S) (668-end, SignalChem); purchased SignalChem
Experiment: EGFR C797S enzyme inhibition activity (ADP-Glo kinase assay)
Assay type: biochemical
Conditions: purified enzyme 3 ng, ATP 5 μM, 25° C., 1 hour, luminescence; read-out: EGFR DTC Enzyme IC50
Procedure: <Experimental Example 1> Evaluation of EGFR C797S Enzyme Inhibition Activity
The compounds according to the present invention were reacted together with purified human EGFR (d746-750/T790M/C797S) (668-end, SignalChem) enzyme and a specific substrate and evaluated for enzyme inhibitory activity as described below. The reaction buffer consisted of 40 mM Tris-HCl pH 7.4, 20 mM MgCl2, 0.5 mg/ml BSA, and 50 μM DTT, and all reactions of the test substances were performed in reaction buffers. The compounds were serially diluted in 12 steps from a 10 mM DMSO stock, and the enzyme activity was measured at the final compound concentrations of 10, 3, 1, 0.3, 0.1, 0.03, 0.01, 0.003, 0.001, 0.0003, 0.0001, and 0 μM. In the assay, human EGFR (d746-750/T790M/C797S) (3 ng) enzyme was reacted with purified ATP (5 μM) and enzyme substrate (0.2 μg) at 25° C. for 1 hour, and the enzyme activity was determined using the in vitro ADP-Glo™ kinase assay (Promega). The enzyme activity inhibition was measured via luminescence by reacting the enzyme activity reaction solution, ADP-Glo reaction solution, and enzyme activity detection solution in a 2:2:1 ratio. Based on the luminescence of the enzyme activity of the solvent control group that was not treated with the compound, the degree of the enzyme activity inhibition depending on the treatment concentration of each compound was calculated, wherein the concentration of each compound that inhibited the enzyme activity by 50% was determined as the IC50 (nM) value, which was obtained using GraphPad Prism 8.4.3 (GraphPad software Inc., San Diego).

T1 sequence (P00533 with tags, fused parts or gaps DEL746-750/T790M/C797S): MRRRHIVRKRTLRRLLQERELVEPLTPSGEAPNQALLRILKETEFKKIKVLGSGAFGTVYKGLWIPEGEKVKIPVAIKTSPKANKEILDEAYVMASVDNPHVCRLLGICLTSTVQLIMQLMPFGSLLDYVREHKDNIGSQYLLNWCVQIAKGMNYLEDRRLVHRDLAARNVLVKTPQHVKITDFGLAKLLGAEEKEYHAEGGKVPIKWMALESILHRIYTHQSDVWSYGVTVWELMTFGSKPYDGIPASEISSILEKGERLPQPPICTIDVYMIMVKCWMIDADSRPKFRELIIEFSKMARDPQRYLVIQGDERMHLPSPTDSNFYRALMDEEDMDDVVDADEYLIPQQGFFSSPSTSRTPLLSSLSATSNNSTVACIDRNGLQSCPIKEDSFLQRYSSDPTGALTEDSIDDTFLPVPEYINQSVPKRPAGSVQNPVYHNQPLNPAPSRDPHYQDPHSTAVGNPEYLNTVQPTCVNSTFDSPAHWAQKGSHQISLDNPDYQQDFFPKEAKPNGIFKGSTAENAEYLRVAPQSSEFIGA

Q: With CC(C)Nc1cc(Nc2ccnc(-c3cnn(S(=O)(=O)C4CC4)c3)n2)ncc1C(=O)NCCC(C)c1ccccc1 (stereo not shown) [Example 54, 6-((2-(1-(cyclopropylsulfonyl)-1H-pyrazol-4-yl)pyrimidin-4-yl)amino)-4-(isopropylamino)-N-(3-phenylbutyl)nicotina-mide] as the compound, how does the IC50 read?
A: 50 to 500 nM

Q: Which IC50 does the source give for C[C@H]1CCOc2c(cnn2C)-c2nccc(n2)Nc2cc(c(C(=O)Nc3cccc(C(F)(F)F)c3)cn2)N1 [Example 101, (S)-1^1,6-dimethyl-N-(3-(trifluoromethyl)phe-nyl)-1^1H-9-oxa-3,5-diaza-2(2,4)-pyrimidina-4(2,4)-pyridina-1(4,5)-pyrazolacyclo-nonaphane-4^5-carboxamide] here?
A: 50 to 500 nM

Q: CO[C@H]1CCN(c2nccc(Nc3cc(NC4CCOC4)c(C(=O)N4CC(CS(C)(=O)=O)C4)cn3)n2)C[C@H]1F (relative stereo) [Example 14, (6-((2-(cis-3-fluoro-4-methoxypiperidin-1-yl)pyrimidin-4-yl)amino)-4-((tetrahydrofuran-3-yl)amino)pyridin-3-yl)(3-((methylsulfonyl)meth-yl)azetidin-1-yl)methanone] was tested. Which IC50 did it give?
A: < 50 nM

Q: With CC(C)Nc1cc(Nc2ccnc(-c3cnn(S(=O)(=O)C4CC4)c3)n2)ncc1C(=O)N1CC(N(C)C)C1 [Example 37, (6-((2-(1-(cyclopropylsulfonyl)-1H-pyrazol-4-yl)pyrimidin-4-yl)amino)-4-(isopropylamino)pyri-din-3-yl)(3-(dimethylamino)azeti-din-1-yl)methanone] as the compound, how does the IC50 read?
A: < 50 nM

Q: With CC(C)Nc1cc(Nc2ccnc(N3CCNC(=O)C3)n2)ncc1C(=O)N1CC(CS(C)(=O)=O)C1 [Example 45, 4-(4-((4-(isopropylamino)-5-(3-((methylsulfonyl)meth-yl)azetidine-1-carbonyl)pyridin-2-yl)amino)pyrimidin-2-yl)piperazin-2-one] as the compound, how does the IC50 read?
A: 50 to 500 nM

Q: CC(C)Nc1cc(Nc2ccnc(-c3cnn(S(=O)(=O)C4CC4)c3)n2)ncc1C(=O)N(C)CC#N [Example 28, N-(cyanomethyl)-6-((2-(1-(cyclopropylsulfonyl)-1H-pyrazol-4-yl)pyrimidin-4-yl)amino)-4-(isopropylamino)-N-methylnicotinamide] was tested. Which IC50 did it give?
A: 50 to 500 nM

Q: How did the IC50 turn out when CC(C)Nc1cc(Nc2ccnc(-c3cnn(S(=O)(=O)C4CC4)c3)n2)ncc1C(=O)Nc1cc(N2CCC(N3CCN(C)CC3)CC2)cc(S(C)(=O)=O)c1 [Example 75, 6-((2-(1-(cyclopropylsulfonyl)-1H-pyrazol-4-yl)pyrimidin-4-yl)amino)-4-(isopropylamino)-N-(3-(4-(4-methylpiperazin-1-yl)piperidin-1-yl)-5-(methyl-sulfonyl)phenyl) nicotinamide] was run?
A: < 50 nM

Q: For CC(C)Nc1cc(Nc2ccnc(-c3cnn(S(=O)(=O)C4CC4)c3)n2)ncc1C(=O)NC1CCN(S(C)(=O)=O)CC1 [Example 69, 6-((2-(1-(cyclopropylsulfonyl)-1H-pyrazol-4-yl)pyrimidin-4-yl)amino)-4-(isopropylamino)-N-(1-(methylsulfonyl)piper-idin-4-yl)nicotinamide], which IC50 is on record?
A: < 50 nM

Q: Which IC50 does the source give for CC(C)Nc1cc(Nc2ccnc(-c3cn[nH]c3)n2)ncc1C(=O)NC1CCNC1 (stereo not shown) [Example 67, 6-((2-(1H-pyrazol-4-yl)pyrimidin-4-yl)amino)-4-(isopropylamino)-N-(pyrrolidin-3-yl)nicotinamide] here?
A: < 50 nM

Q: For C[C@H]1CCOc2c(cnn2C)-c2nccc(n2)Nc2cc(c(C(=O)O)cn2)N1 [Example 117, (S)-1^1,6-dimethyl-1^1H-9-oxa-3,5-diaza-2(2,4)-pyrimidina-4(2,4)-pyridina-1(4,5)-pyrazolacyclo-nonaphane-4^5-carboxylic acid], which IC50 is on record?
A: < 50 nM

Q: Which IC50 does the source give for CC(C)Nc1cc(Nc2ccnc(N3CCN(C)CC3)n2)ncc1C(=O)N1CC(CS(C)(=O)=O)C1 [Example 11, (4-(isopyropylamino)-4-((2-(4-methylpiperazin-1-yl)pyrimidin-4-yl)amino)pyridin-3-yl)(3-((methylsulfonyl)meth-yl)azetidin-1-yl)methanone] here?
A: 50 to 500 nM

Q: With Cn1cc(Nc2cc(Nc3ccnc(-c4cnn(S(=O)(=O)C5CC5)c4)n3)ncc2C(=O)N2CC(CS(C)(=O)=O)C2)cn1 [Example 22, (6-((2-(1-(cyclopropylsulfonyl)-1H-pyrazol-4-yl)pyrimidin-4-yl)amino)-4-((1-methyl-1H-pyrazol-4-yl)amino)pyridin-3-yl)(3-((methylsulfonyl)meth-yl)azetidin-1-yl)methanone] as the compound, how does the IC50 read?
A: 50 to 500 nM

Q: How did the IC50 turn out when CO[C@H]1CCN(c2nccc(Nc3cc(NC(C)C)c(C(=O)N4CC(CS(C)(=O)=O)C4)cn3)n2)C[C@H]1F (relative stereo) [Example 2, (6-((2-(cis-3-fluoro-4-methoxypiperidin-1-yl)pyrimidin-4-yl)amino)-4-(isopropylamino)pyri-din-3-yl)(3-((methylsulfonyl)meth-yl)azetidin-1-yl)methanone] was run?
A: < 50 nM

Q: How did the IC50 turn out when C[C@@H]1CCOc2c(cnn2C)-c2nccc(n2)Nc2cc(c(C(=O)NCC#N)cn2)N1 [Example 84, (R)-N-(cyanomethyl)-1^1,6-dimethyl-1^1H-9-oxa-3,5-diaza-2(2,4)-pyrimidina-4(2,4)-pyridina-1(4,5)-pyrazolacyclo-nonaphane-4^5-carboxamide] was run?
A: < 50 nM

Q: Which IC50 does the source give for CC(C)Nc1cc(Nc2ccnc(-c3cnn(S(=O)(=O)C4CC4)c3)n2)ncc1NC(=O)Cc1ccc(C#N)cc1 [Example 85, 2-(4-cyanophenyl)-N-(6-((2-(1-(cyclopropylsulfonyl)-1H-pyrazol-4-yl)pyrimidin-4-yl)amino)-4-(isopropylamin)pyri-din-3-yl)acetamide] here?
A: < 50 nM

Q: For CNCCCNC(=O)c1cnc(Nc2ccnc(-c3cn[nH]c3)n2)cc1NC(C)C [Example 59, 6-((2-(1H-pyrazol-4-yl)pyrimidin-4-yl)amino)-4-(isopropylamino)-N-(3-(methylamino)propyl) nicotinamide], which IC50 is on record?
A: < 50 nM

Q: For CC(C)Nc1cc(Nc2ccnc(-c3cnn(S(=O)(=O)C4CC4)c3)n2)ncc1C(=O)NCCc1ccccc1 [Example 52, 6-((2-(1-(cyclopropylsulfonyl)-1H-pyrazol-4-yl)pyrimidin-4-yl)amino)-4-(isopropylamino)-N-phenethylnicotinamide], which IC50 is on record?
A: < 50 nM

Q: How did the IC50 turn out when CC(C)Nc1cc(Nc2ccnc(-c3cnn(S(=O)(=O)C4CC4)c3)n2)ncc1C(=O)NC[C@H]1CCCN1 [Example 77, (R)-6-((2-(1-(cyclopropylsulfonyl)-1H-pyrazol-4-yl)pyrimidin-4-yl)amino)-4-(isopropylamino)-N-(pyrrolidin-2-ylmethyl)nicotinamide] was run?
A: < 50 nM

Q: With CNCCCNC(=O)c1cnc(Nc2ccnc(-c3cnn(S(=O)(=O)C4CC4)c3)n2)cc1NC(C)C [Example 60, 6-((2-(1-(cyclopropylsulfonyl)-1H-pyrazol-4-yl)pyrimidin-4-yl)amino)-4-(isopropoylamino)-N-(3-(methylamino)propyl) nicotinamide] as the compound, how does the IC50 read?
A: < 50 nM

Q: CC(C)Nc1cc(Nc2ccnc(-c3cnn(CC4CC4)c3)n2)ncc1C(=O)N1CC(CS(C)(=O)=O)C1 [Example 43, (6-((2-(1-(cyclopropylmethyl)-1H-pyrazol-4-yl)pyrimidin-4-yl)amino)-4-(isopropylamino)pyri-din-3-yl)(3-((methylsulfonyl)meth-yl)azetidin-1-yl)methanone] was tested. Which IC50 did it give?
A: < 50 nM

Q: With CC(C)Nc1cc(Nc2ccnc(-c3cnn(S(=O)(=O)C4CC4)c3)n2)ncc1C(=O)N(C)CCN(C)C [Example 26, 6-((2-(1-(cyclopropylsulfonyl)-1H-pyrazol-4-yl)pyrimidin-4-yl)amino)-N-(2-(dimethylamino)ethyl)-4-(isopropylamino)-N-methylnicotinamide] as the compound, how does the IC50 read?
A: 50 to 500 nM

Q: Which IC50 does the source give for CC(C)Nc1cc(Nc2ccnc(N3CCN(S(C)(=O)=O)CC3)n2)ncc1C(=O)N1CC(CS(C)(=O)=O)C1 [Example 44, (4-(isopropylamino)-6-((2-(4-(methylsulfonyl)piper-azin-1-yl)pyrimidin-4-yl)amino)pyridin-3-yl)(3-((methylsulfonyl)meth-yl)azetidin-1-yl)methanone] here?
A: 50 to 500 nM

From US20250345329A1, “HETEROARYL DERIVATIVE COMPOUND AND USES THEREOF” (VORONOI, INC., priority 2022, published 2025)
